Laboratory results reported in patent publication US9346786B2, “Pyrrolidine compounds” (Hoffmann-La Roche Inc., priority 2009, dated 2016).

The compounds below were run against recombinant human NK3 receptor (Homo sapiens (Human), UniProt P29371) (assay: biochemical). Settings: not given.
Type: binding

Sequence of recombinant human NK3 receptor (P29371 whole entry): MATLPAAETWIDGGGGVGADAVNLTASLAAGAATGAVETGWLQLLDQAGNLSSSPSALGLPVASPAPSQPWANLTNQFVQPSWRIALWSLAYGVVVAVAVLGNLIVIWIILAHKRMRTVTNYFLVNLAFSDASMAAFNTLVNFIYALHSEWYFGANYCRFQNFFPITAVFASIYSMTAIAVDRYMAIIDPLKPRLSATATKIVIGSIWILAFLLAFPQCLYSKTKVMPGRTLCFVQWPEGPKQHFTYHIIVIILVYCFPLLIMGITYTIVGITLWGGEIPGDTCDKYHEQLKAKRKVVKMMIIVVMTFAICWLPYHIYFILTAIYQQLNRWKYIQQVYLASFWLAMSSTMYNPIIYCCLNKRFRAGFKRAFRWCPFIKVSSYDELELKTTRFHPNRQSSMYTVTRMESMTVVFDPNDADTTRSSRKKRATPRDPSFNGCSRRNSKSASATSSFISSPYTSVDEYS

Work on CCN(C(=O)Oc1ccc(F)cc1)[C@@H]1CN(C(=O)C2CCN(c3ccc(C(N)=O)cn3)CC2)C[C@H]1c1ccc(Cl)c(F)c1 [Example 109, [(3S,4R)-1-(5′-Carbamoyl-3,4,5,6-tetrahydro-2H-[1,2′]bipyridinyl-4-carbonyl)-4-(4-chloro-3-fluoro-phenyl)-pyrrolidin-3-yl]-ethyl-carbamic acid 4-fluoro-phenyl ester] yielded a Ki of 1.7 nM.

Same assay, conditions: [3H]SR142801, membranes of HEK293 cells transiently expressing recombinant human NK3 receptor; read-out: Data Ki (hNK-3 receptor affinity)

Compared with CCN(C(=O)Oc1ccc(F)cc1)[C@@H]1CN(C(=O)C2CCN(C(=O)C3CC3(C)C)CC2)C[C@H]1c1ccc(Cl)cc1 (stereo partly drawn) [Example 100, {(3S,4R)-4-(4-Chloro-phenyl)-1-[1-(2,2-dimethyl-cyclopropanecarbonyl)-piperidine-4-carbonyl]-pyrrolidin-3-yl}-ethyl-carbamic acid 4-fluoro-phenyl ester], CCN(C(=O)Oc1ccc(F)cc1)[C@@H]1CN(C(=O)C2CCN(C(=O)[C@@H]3CC(=O)N3)CC2)C[C@H]1c1ccc(Cl)cc1 [Example 121, {(3S,4R)-4-(4-Chloro-phenyl)-1-[1-((S)-4-oxo-azetidine-2-carbonyl)-piperidine-4-carbonyl]-pyrrolidin-3-yl}-ethyl-carbamic acid 4-fluoro-phenyl ester] is 4.7-fold higher in Ki: 3.6 nM for the first, 16.9 nM for the second. The first binds more tightly here.

Going from CCN(C(=O)Oc1ccc(F)cc1)[C@@H]1CN(C(=O)C2CCN(C(=O)c3ccc(C(F)(F)F)cn3)CC2)C[C@H]1c1ccc(Cl)cc1 [Example 101, {(3S,4R)-4-(4-Chloro-phenyl)-1-[1-(5-trifluoromethyl-pyridine-2-carbonyl)-piperidine-4-carbonyl]-pyrrolidin-3-yl}-ethyl-carbamic acid 4-fluoro-phenyl ester] to CCN(C(=O)Oc1ccc(F)cc1)[C@@H]1CN(C(=O)C2CCN(C(=O)c3ccc(F)cn3)CC2)C[C@H]1c1ccc(Cl)cc1 [Example 102, {(3S,4R)-4-(4-Chloro-phenyl)-1-[1-(5-fluoro-pyridine-2-carbonyl)-piperidine-4-carbonyl]-pyrrolidin-3-yl}-ethyl-carbamic acid 4-fluoro-phenyl ester], the Ki falls from 42.5 nM to 8.2 nM (5.2-fold). The second binds more tightly here.

Compared with CCN(C(=O)Oc1ccc(F)cc1)[C@@H]1CN(C(=O)C2CCC(=O)N(C(C)C)C2)C[C@H]1c1ccc(Cl)c(F)c1 (stereo partly drawn) [Example 105, [(3S,4R)-4-(4-Chloro-3-fluoro-phenyl)-1-(1-isopropyl-6-oxo-piperidine-3-carbonyl)-pyrrolidin-3-yl]-ethyl-carbamic acid 4-fluoro-phenyl ester], CCN(C(=O)Oc1ccc(F)cc1)[C@@H]1CN(C(=O)C2CCN(C(=O)[C@@H]3CC(=O)N3)CC2)C[C@H]1c1ccc(F)c(F)c1 [Example 106, {(3S,4R)-4-(3,4-Difluoro-phenyl)-1-[1-((S)-4-oxo-azetidine-2-carbonyl)-piperidine-4-carbonyl]-pyrrolidin-3-yl}-ethyl-carbamic acid 4-fluoro-phenyl ester] is 2.1-fold higher in Ki: 31.2 nM for the first, 66 nM for the second.

Compared with CCN(C(=O)Oc1ccc(F)cc1)[C@@H]1CN(C(=O)C2CCN(C(=O)C3CCC(=O)NC3)CC2)C[C@H]1c1ccc(F)c(F)c1 (stereo partly drawn) [Example 107, {(3S,4R)-4-(3,4-Difluoro-phenyl)-1-[1-(6-oxo-piperidine-3-carbonyl)-piperidine-4-carbonyl]-pyrrolidin-3-yl}-ethyl-carbamic acid 4-fluoro-phenyl ester], CCN(C(=O)Oc1ccc(F)cc1)[C@@H]1CN(C(=O)C2CCN(c3ccc(F)cn3)CC2)C[C@H]1c1ccc(F)c(Cl)c1 [Example 117, [(3S,4R)-4-(3-Chloro-4-fluoro-phenyl)-1-(5′-fluoro-3,4,5,6-tetrahydro-2H-[1,2′]bipyridinyl-4-carbonyl)-pyrrolidin-3-yl]-ethyl-carbamic acid 4-fluoro-phenyl ester] is 40-fold lower in Ki: 131 nM for the first, 3.3 nM for the second.

Compared with CCN(C(=O)Oc1ccc(F)cc1)[C@@H]1CN(C(=O)C2CCN(c3ccc(Cl)cn3)CC2)C[C@H]1c1ccc(Cl)cc1 [Example 110, [(3S,4R)-4-(4-Chloro-phenyl)-1-(5′-chloro-3,4,5,6-tetrahydro-2H-[1,2′]bipyridinyl-4-carbonyl)-pyrrolidin-3-yl]-ethyl-carbamic acid 4-fluoro-phenyl ester], CCN(C(=O)Oc1ccc(F)cc1)[C@@H]1CN(C(=O)C2CCN(c3ccc(Cl)cn3)CC2)C[C@H]1c1ccc(F)c(Cl)c1 [Example 118, [(3S,4R)-4-(3-Chloro-4-fluoro-phenyl)-1-(5′-chloro-3,4,5,6-tetrahydro-2H-[1,2′]bipyridinyl-4-carbonyl)-pyrrolidin-3-yl]-ethyl-carbamic acid 4-fluoro-phenyl ester] is 2.7-fold lower in Ki: 4.8 nM for the first, 1.8 nM for the second.

Going from CCN(C(=O)Oc1ccc(F)cc1)[C@@H]1CN(C(=O)C2CCN(c3ccc(C(N)=O)cn3)CC2)C[C@H]1c1ccc(Cl)cc1 [Example 111, [(3S,4R)-1-(5′-Carbamoyl-3,4,5,6-tetrahydro-2H-[1,2′]bipyridinyl-4-carbonyl)-4-(4-chloro-phenyl)-pyrrolidin-3-yl]-ethyl-carbamic acid 4-fluoro-phenyl ester] to CCN(C(=O)Oc1ccc(F)cc1)[C@@H]1CN(C(=O)C2CCN(c3ccc(C(N)=O)cn3)CC2)C[C@H]1c1ccc(Cl)c(Cl)c1 [Example 115, [(3S,4R)-1-(5′-Carbamoyl-3,4,5,6-tetrahydro-2H-[1,2′]bipyridinyl-4-carbonyl)-4-(3,4-dichloro-phenyl)-pyrrolidin-3-yl]-ethyl-carbamic acid 4-fluoro-phenyl ester], the Ki falls from 7.4 nM to 0.9 nM (8.2-fold).

CCN(C(=O)Oc1ccc(F)cc1)[C@@H]1CN(C(=O)C2CCN(c3ccc(Cl)cn3)CC2)C[C@H]1c1ccc(Cl)c(Cl)c1 [Example 113, [(3S,4R)-1-(5′-Chloro-3,4,5,6-tetrahydro-2H-[1,2′]bipyridinyl-4-carbonyl)-4-(3,4-dichloro-phenyl)-pyrrolidin-3-yl]-ethyl-carbamic acid 4-fluoro-phenyl ester] and CCN(C(=O)Oc1ccc(F)cc1)[C@@H]1CN(C(=O)C2CCN(c3ccc(C(C)=O)cn3)CC2)C[C@H]1c1ccc(Cl)c(Cl)c1 [Example 116, [(3S,4R)-1-(5′-Acetyl-3,4,5,6-tetrahydro-2H-[1,2′]bipyridinyl-4-carbonyl)-4-(3,4-dichloro-phenyl)-pyrrolidin-3-yl]-ethyl-carbamic acid 4-fluoro-phenyl ester] are the same in Ki: 0.5 nM for the first, 0.5 nM for the second.

CCN(C(=O)Oc1ccc(F)cc1)[C@@H]1CN(C(=O)C2CCN(c3ccc(C(F)(F)F)cn3)CC2)C[C@H]1c1ccc(Cl)c(Cl)c1 [Example 114, [(3S,4R)-4-(3,4-Dichloro-phenyl)-1-(5′-trifluoromethyl-3,4,5,6-tetrahydro-2H-[1,2′]bipyridinyl-4-carbonyl)-pyrrolidin-3-yl]-ethyl-carbamic acid 4-fluoro-phenyl ester] and CCN(C(=O)Oc1ccc(F)cc1)[C@@H]1CN(C(=O)C2CCN(c3ccc(C(C)=O)cn3)CC2)C[C@H]1c1ccc(F)c(Cl)c1 [Example 120, [(3S,4R)-1-(5′-Acetyl-3,4,5,6-tetrahydro-2H-[1,2′]bipyridinyl-4-carbonyl)-4-(3-chloro-4-fluoro-phenyl)-pyrrolidin-3-yl]-ethyl-carbamic acid 4-fluoro-phenyl ester] are within 1.5-fold of each other in Ki: 1.6 nM for the first, 1.7 nM for the second.

CCN(CC)CC(=O)c1ccc(N2CCC(C(=O)N3C[C@@H](N(CC)C(=O)Oc4ccc(F)cc4)[C@H](c4ccc(F)cc4)C3)CC2)nc1 [Example 122, [(3S,4R)-1-[5′-(2-Diethylamino-acetyl)-3,4,5,6-tetrahydro-2H-[1,2′]bipyridinyl-4-carbonyl]-4-(4-fluoro-phenyl)-pyrrolidin-3-yl]-ethyl-carbamic acid 4-fluoro-phenyl ester] gave a Ki of 69.6 nM.

Same assay, conditions: read-out: Data Ki (hNK-3 receptor affinity)

First: CCN(C(=O)Oc1ccc(F)cc1)[C@@H]1CN(C(=O)C2CCN(C(=O)C3(COC)CC3)CC2)C[C@H]1c1ccc(Cl)cc1 [Example 99, {(3S,4R)-4-(4-Chloro-phenyl)-1-[1-(1-methoxymethyl-cyclopropanecarbonyl)-piperidine-4-carbonyl]-pyrrolidin-3-yl}-ethyl-carbamic acid 4-fluoro-phenyl ester]
Second: CCN(C(=O)Oc1ccc(F)cc1)[C@@H]1CN(C(=O)C2CCN(C(=O)C3CCC(=O)NC3)CC2)C[C@H]1c1ccc(Cl)cc1 (stereo partly drawn) [Example 103, {(3S,4R)-4-(4-Chloro-phenyl)-1-[1-(6-oxo-piperidine-3-carbonyl)-piperidine-4-carbonyl]-pyrrolidin-3-yl}-ethyl-carbamic acid 4-fluoro-phenyl ester]
The Ki of the first is 6.9-fold lower: 4.7 nM for the first, 32.6 nM for the second. The first binds more tightly here.

Going from CCN(C(=O)Oc1ccc(F)cc1)[C@@H]1CN(C(=O)C2CCN(C(=O)C3CCC(=O)N(C(C)C)C3)CC2)C[C@H]1c1ccc(Cl)cc1 (stereo partly drawn) [Example 104, {(3S,4R)-4-(4-Chloro-phenyl)-1-[1-(1-isopropyl-6-oxo-piperidine-3-carbonyl)-piperidine-4-carbonyl]-pyrrolidin-3-yl}-ethyl-carbamic acid 4-fluoro-phenyl ester] to CCN(C(=O)Oc1ccc(F)cc1)[C@@H]1CN(C(=O)C2CCN(c3ccc(C(C)O)cn3)CC2)C[C@H]1c1ccc(Cl)cc1 (stereo partly drawn) [Example 108, {(3S,4R)-4-(4-Chloro-phenyl)-1-[5′-(1-hydroxy-ethyl)-3,4,5,6-tetrahydro-2H-[1,2]bipyridinyl-4-carbonyl]-pyrrolidin-3-yl}-ethyl-carbamic acid 4-fluoro-phenyl ester], the Ki falls from 17.6 nM to 4.7 nM (3.7-fold).

First: CCN(C(=O)Oc1ccc(F)cc1)[C@@H]1CN(C(=O)C2CCN(c3ccc(F)cn3)CC2)C[C@H]1c1ccc(Cl)c(Cl)c1 [Example 112, [(3S,4R)-4-(3,4-Dichloro-phenyl)-1-(5′-fluoro-3,4,5,6-tetrahydro-2H-[1,2′]bipyridinyl-4-carbonyl)-pyrrolidin-3-yl]-ethyl-carbamic acid 4-fluoro-phenyl ester]
Second: CCN(C(=O)Oc1ccc(F)cc1)[C@@H]1CN(C(=O)C2CCN(c3ccc(C(F)(F)F)cn3)CC2)C[C@H]1c1ccc(F)c(Cl)c1 [Example 119, [(3S,4R)-4-(3-Chloro-4-fluoro-phenyl)-1-(5′-trifluoromethyl-3,4,5,6-tetrahydro-2H-[1,2′]bipyridinyl-4-carbonyl)-pyrrolidin-3-yl]-ethyl-carbamic acid 4-fluoro-phenyl ester]
The Ki of the first is 4.6-fold lower: 0.8 nM for the first, 3.7 nM for the second. The first binds more tightly here.
